# The source made the active and inactive calls. No rule for the calls is given here.
# Tested on: rodent carcinogenicity bioassays, tumor incidence
# Assay: CCRIS carcinogenicity studies
# How it was run: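 Archive of carcinogenicity, mutagenicity, tumor promotion and tumor inhibition results drawn from journals, NCI reports and other sources, expert-reviewed; covers 1985-2011 and is no longer updated.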
smiles,measurement,setting,value
Nc1ccc(Cl)cc1,carcinogen call,"Species: MOUSE, Strain/Sex: B6C3F1/F, Route: GAVAGE, Dose: 0, 3, 10, 30 MG/KG IN ACIDIFIED WATER 5D/WK FOR 103 WK (STUDY DURATION: 104 WK, Dose: 0, 3, 10, 30 MG/KG IN ACIDIFIED WATER 5D/WK FOR 103 WK (STUDY DURATION: 104 WK",inactive; negative
same,carcinogen call,"Species: MOUSE, Strain/Sex: B6C3F1/FEMALE, Route: ORAL, Dose: 0, 2500, 5000 PPM IN DIET FOR 78 WK (STUDY DURATION: 91 WK), Dose: 0, 2500, 5000 PPM IN DIET FOR 78 WK (STUDY DURATION: 91 WK), Tumor Site: Type of Lesion: SPLEEN: HEMANGIOMA AND HEMANGIOSARCOMA, LIVER: HEMANGIOSARCOMA, MULTIPLE ORGANS: HEMANGIOSARCOMA, Tumor Site: Type of Lesion: SPLEEN: HEMANGIOMA AND HEMANGIOSARCOMA, LIVER: HEMANGIOSARCOMA, MULTIPLE ORGANS: HEMANGIOSARCOMA",equivocal
same,carcinogen call,"Species: MOUSE, Strain/Sex: B6C3F1/MALE, Route: GAVAGE, Dose: 0, 3, 10, 30 MG/KG IN ACIDIFIED WATER 5D/WK FOR 103 WK (STUDY DURATION: 104 WK), Dose: 0, 3, 10, 30 MG/KG IN ACIDIFIED WATER 5D/WK FOR 103 WK (STUDY DURATION: 104 WK), Tumor Site: Type of Lesion: LIVER: HEPATOCELLULAR CARCINOMA, LIVER: HEPATOCELLULAR ADENOMA OR CARCINOMA, CIRCULATORY SYSTEM: HEMANGIOSARCOMA, Tumor Site: Type of Lesion: LIVER: HEPATOCELLULAR CARCINOMA, LIVER: HEPATOCELLULAR ADENOMA OR CARCINOMA, CIRCULATORY SYSTEM: HEMANGIOSARCOMA",active; positive
same,carcinogen call,"Species: MOUSE, Strain/Sex: B6C3F1/MALE, Route: ORAL, Dose: 0, 2500, 5000 PPM IN DIET FOR 78 WK (STUDY DURATION: 91 WK), Dose: 0, 2500, 5000 PPM IN DIET FOR 78 WK (STUDY DURATION: 91 WK), Tumor Site: Type of Lesion: SPLEEN: HEMANGIOSARCOMA, LIVER: HEMANGIOMA AND HEMANGIOSARCOMA, KIDNEY: HEMANGIOSARCOMA, MULTIPLE ORGANS: HEMANGIOSARCOM, Tumor Site: Type of Lesion: SPLEEN: HEMANGIOSARCOMA, LIVER: HEMANGIOMA AND HEMANGIOSARCOMA, KIDNEY: HEMANGIOSARCOMA, MULTIPLE ORGANS: HEMANGIOSARCOM",equivocal
same,carcinogen call,"Species: RAT, Strain/Sex: F344/FEMALE, Route: GAVAGE, Dose: 0, 2, 6, 18 MG/KG IN ACIDIFIED WATER 5D/WK FOR 103 WK (STUDY DURATION: 104 WK), Dose: 0, 2, 6, 18 MG/KG IN ACIDIFIED WATER 5D/WK FOR 103 WK (STUDY DURATION: 104 WK), Tumor Site: Type of Lesion: SPLEEN: SARCOMA, ADRENAL GLAND: PHEOCHROMOCYTOMA",equivocal
same,carcinogen call,"Species: RAT, Strain/Sex: F344/FEMALE, Route: ORAL, Dose: 0, 250, 500 PPM IN DIET FOR 78 WK (STUDY DURATION: 102 WK), Dose: 0, 250, 500 PPM IN DIET FOR 78 WK (STUDY DURATION: 102 WK)",inactive; negative
same,carcinogen call,"Species: RAT, Strain/Sex: F344/MALE, Route: GAVAGE, Dose: 0, 2, 6, 18 MG/KG IN ACIDIFIED WATER 5D/WK FOR 103 WK (STUDY DURATION: 104 WK), Dose: 0, 2, 6, 18 MG/KG IN ACIDIFIED WATER 5D/WK FOR 103 WK (STUDY DURATION: 104 WK), Tumor Site: Type of Lesion: ADRENAL MEDULLA: PHEOCHROMOCYTOMA, ADRENAL MEDULLA: PHEOCHROMOCYTOMA OR MALIGNANT PHEOCHROMOCYTOMA, SPLEEN: FIBROSARCOMA, Tumor Site: Type of Lesion: ADRENAL MEDULLA: PHEOCHROMOCYTOMA, ADRENAL MEDULLA: PHEOCHROMOCYTOMA OR MALIGNANT PHEOCHROMOCYTOMA, SPLEEN: FIBROSARCOMA",active; positive
same,carcinogen call,"Species: RAT, Strain/Sex: F344/MALE, Route: ORAL, Dose: 0, 250, 500 PPM IN DIET FOR 78 WK (STUDY DURATION: 102 WK), Dose: 0, 250, 500 PPM IN DIET FOR 78 WK (STUDY DURATION: 102 WK), Tumor Site: Type of Lesion: SPLEEN OR PERITONEUM: SARCOMA",active; positive
same,carcinogen call,"Species: RAT, Strain/Sex: F344/MALE, Route: ORAL, Dose: 0, 250, 500 PPM IN DIET FOR 78 WK (STUDY DURATION: 102 WK), Dose: 0, 250, 500 PPM IN DIET FOR 78 WK (STUDY DURATION: 102 WK), Tumor Site: Type of Lesion: SPLEEN: FIBROMA AND SARCOMA",equivocal
Cn1c(=O)c2c(ncn2C)n(C)c1=O (tested in a mixture with another compound),carcinogen call,"Species: MOUSE, Strain/Sex: B6C3F1/FEMALE, Route: ORAL, Dose: 0, 0.7, 1.4% OF DIET FOR 78 WK (STUDY DURATION: 94 WK), Dose: 0, 0.7, 1.4% OF DIET FOR 78 WK (STUDY DURATION: 94 WK)",inactive; negative
same,carcinogen call,"Species: MOUSE, Strain/Sex: B6C3F1/MALE, Route: ORAL, Dose: 0, 0.7, 1.4% OF DIET FOR 78 WK (STUDY DURATION: 94 WK), Dose: 0, 0.7, 1.4% OF DIET FOR 78 WK (STUDY DURATION: 94 WK)",inactive; negative
same,carcinogen call,"Species: RAT, Strain/Sex: F344/FEMALE, Route: ORAL, Dose: 0, 0.7, 1.4% OF DIET FOR 78 WK (STUDY DURATION: 113 WK), Dose: 0, 0.7, 1.4% OF DIET FOR 78 WK (STUDY DURATION: 113 WK), Tumor Site: Type of Lesion: BLADDER: TRANSITIONAL CELL CARCINOMA, KIDNEY: TUBULAR CELL ADENOCARCINOMA, TRANSITIONAL CELL PAPILLOMA",equivocal
same,carcinogen call,"Species: RAT, Strain/Sex: F344/MALE, Route: ORAL, Dose: 0, 0.7, 1.4% OF DIET FOR 78 WK (STUDY DURATION: 113 WK), Dose: 0, 0.7, 1.4% OF DIET FOR 78 WK (STUDY DURATION: 113 WK)",inactive; negative
CC1=C(C)C(=O)C(C(CCCCCC(=O)O)c2ccccc2)=C(C)C1=O (stereo not drawn),carcinogen call,"Species: RAT, Strain/Sex: F344/FEMALE, Route: ORAL, Dose: 0, 3, 10, 30, 100 MG/KG/D IN THE DIET FOR 52 WK (STUDY DURATION: 52 WK), Dose: 0, 3, 10, 30, 100 MG/KG/D IN THE DIET FOR 52 WK (STUDY DURATION: 52 WK)",inactive; negative
same,carcinogen call,"Species: RAT, Strain/Sex: F344/MALE, Route: ORAL, Dose: 0, 3, 10, 30, 100 MG/KG/D IN THE DIET FOR 52 WK (STUDY DURATION: 52 WK), Dose: 0, 3, 10, 30, 100 MG/KG/D IN THE DIET FOR 52 WK (STUDY DURATION: 52 WK)",inactive; negative
O=[N+]([O-])c1c(Cl)c(Cl)c(Cl)c(Cl)c1Cl,carcinogen call,"Species: MOUSE, Route: DERMAL, Tumor Site: Type of Lesion: INTEGUMENTARY SYSTEM (SKIN)",active; positive
same,carcinogen call,"Species: MOUSE, Route: ORAL, Tumor Site: Type of Lesion: LIVER",active; positive
same,carcinogen call,"Species: MOUSE, Strain/Sex: B6C3F1/FEMALE, Route: ORAL, Dose: 0, 4093, 8187 PPM IN DIET, TWA, Dose: 0, 4093, 8187 PPM IN DIET, TWA",inactive; negative
same,carcinogen call,"Species: MOUSE, Strain/Sex: B6C3F1/MALE, Route: ORAL, Dose: 0, 2500, 5000 PPM IN DIET FOR 103 WK (STUDY DURATION = 104 WK), Dose: 0, 2500, 5000 PPM IN DIET FOR 103 WK (STUDY DURATION = 104 WK)",inactive; negative
same,carcinogen call,"Species: MOUSE, Strain/Sex: B6C3F1/MALE, Route: ORAL, Dose: 0, 2606, 5213 PPM IN DIET, TWA, Dose: 0, 2606, 5213 PPM IN DIET, TWA",inactive; negative
same,carcinogen call,"Species: RAT, Strain/Sex: OSBORNE-MENDEL/FEMALE, Route: ORAL, Dose: 0, 7875, 14635 PPM IN DIET, TWA, Dose: 0, 7875, 14635 PPM IN DIET, TWA",inactive; negative
same,carcinogen call,"Species: RAT, Strain/Sex: OSBORNE-MENDEL/MALE, Route: ORAL, Dose: 0, 5417, 10064 PPM IN DIET, TWA, Dose: 0, 5417, 10064 PPM IN DIET, TWA",inactive; negative
NS(=O)(=O)c1cc2c(cc1Cl)NCNS2(=O)=O,carcinogen call,"Species: MOUSE, Strain/Sex: B6C3F1/FEMALE, Route: ORAL, Dose: 0, 2500, 5000 PPM IN FEED FOR 103-104 WK (STUDY DURATION: 106 WK), Dose: 0, 2500, 5000 PPM IN FEED FOR 103-104 WK (STUDY DURATION: 106 WK)",inactive; negative
same,carcinogen call,"Species: MOUSE, Strain/Sex: B6C3F1/MALE, Route: ORAL, Dose: 0, 2500, 5000 PPM IN FEED FOR 103-104 WK (STUDY DURATION: 106 WK), Dose: 0, 2500, 5000 PPM IN FEED FOR 103-104 WK (STUDY DURATION: 106 WK), Tumor Site: Type of Lesion: LIVER: HEPATOCELLULAR ADENOMA OR CARCINOMA",equivocal
same,carcinogen call,"Species: RAT, Strain/Sex: F344/FEMALE, Route: ORAL, Dose: 0, 0.1% IN DIET FOR 104 WK (STUDY DURATION: 130 WK)",inactive; negative
same,carcinogen call,"Species: RAT, Strain/Sex: F344/FEMALE, Route: ORAL, Dose: 0, 250, 500, 2000 PPM IN FEED FOR 105-106 WK (STUDY DURATION: 106 WK), Dose: 0, 250, 500, 2000 PPM IN FEED FOR 105-106 WK (STUDY DURATION: 106 WK)",inactive; negative
same,carcinogen call,"Species: RAT, Strain/Sex: F344/MALE, Route: ORAL, Dose: 0, 0.1% IN DIET FOR 104 WK (STUDY DURATION: 130 WK)",inactive; negative
same,carcinogen call,"Species: RAT, Strain/Sex: F344/MALE, Route: ORAL, Dose: 0, 250, 500, 2000 PPM IN FEED FOR 105-106 WK (STUDY DURATION: 106 WK), Dose: 0, 250, 500, 2000 PPM IN FEED FOR 105-106 WK (STUDY DURATION: 106 WK)",inactive; negative
